{
  "source": "paper PMC11899342",
  "about": "“Novel Triazeneindole Antibiotics: Synthesis and Hit-to-Lead Optimization” (International Journal of Molecular Sciences, 2025)",
  "key": {"[1]": {"system": "HepG2 human liver carcinoma cells", "assay": "MTT cytotoxicity (hepatotoxicity) on HepG2", "type": "cell-based", "settings": "Homo sapiens, HepG2, 24 h", "description": "(§1) The primary screening of 22 substances was performed on human embryonic fibroblasts (HEFs). […] The HepG2 cell line was obtained from the American Type Culture Collection (ATCC cat. # HB-8065). The primary HEF cells (normal human embryonic fibroblasts) were derived from human embryonic stem cells. The cells were cultured in DMEM/F12 (1:1) medium containing 10% fetal bovine serum (Invitrogen, Carlsbad, CA, USA) at 37 °C and 5% CO2, according to standard mammalian tissue culture protocols and sterile technique. […] The incubation time with the substance was 24 h for all substances and cell lines. Cell detachment by trypsin, centrifugation, and counting in a hemocytometer were performed 16 h before the addition of the substance. For correct counting of the HepG2 cells, the cell suspension was passed through a syringe needle to get rid of cell aggregates. The cells were placed in the wells of a 96-well plate. The number of cells was selected according to the properties of the cell line and the final optical density in the experiment. Fibroblasts and hepatocytes were used in the amount of 10 thousand cells per well in 100 μL of DMEM/F12 medium supplemented with 10% fetal bovine serum. The substances were added to 100 µL of medium in the wells so that the final concentrations were 50, 25, 12.5, 6.25, 3.125, and 1.62 mg/L. The final well volume was 200 µL. The medium containing fetal bovine serum, without added substances, was used as a negative control. After 24 h, excessive amounts of medium were discarded. A total of 30 µL of MTT solution (5 mg/mL in PBS) was added to each well. After the precipitation of formazan crystals (3 h incubation), they were dissolved using 100 μL of dimethyl sulfoxide. The optical density (OD) was measured at 570 nm using a microplate reader (Eppendorf). For every condition, the cell viabilities were assessed in at least three independent experiments for every cell culture. Cell survival was calculated using the following formula:(OD of treated cells − OD blank)/(OD of control cells − OD blank) × 100%, where OD blank represents the OD values in wells without cells but with the addition of the MTT and DMSO solutions. The results were presented in the form of cytotoxicity curves, and the graphs were also plotted in a Microsoft Excel program; the calculation of the IC50 half-maximal inhibition concentration values was performed in a GraphPad Prism 6.0 (GraphPad Software Inc., San Diego, CA, USA) program, based on the equations of the cytotoxicity curves."}, "[2]": {"system": "MRSA", "assay": "Selectivity index (average IC50 on eukaryotic cells / average MIC on MRSA)", "type": "cell-based, Staphylococcus aureus", "settings": "average IC50 on eukaryotic cells divided by average MIC on MRSA", "description": "The selectivity index was calculated for each compound as the average IC50 on eukaryotic cells divided by the average MIC on MRSA (Table 2)."}, "[3]": {"assay": "Solubility in water by HPLC", "type": "physicochemical", "settings": "water, kinetic from dmso stock", "summary_of_the_method": "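Compound (1.0 mg in 10 μL DMSO) mixed with 1.0 mL water, shaken 5 min and centrifuged; supernatant analysed by C18 HPLC. Water concentration derived from peak area relative to an acetonitrile standard at 1.0 mg/mL.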"}, "[4]": {"system": "MRSA clinical isolates", "assay": "MIC by broth microdilution against multidrug-resistant MRSA clinical isolates", "type": "cell-based, Staphylococcus aureus", "settings": "for MIC: Staphylococcus aureus, MRSA, read-out: MIC", "summary_of_the_method": "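Multidrug-resistant clinical MRSA isolates, 1 × 10^6 CFU/mL suspension in Mueller Hinton broth, broth microdilution with compounds at final 1, 0.5, 0.25 and 0.125 mg/L. Incubated 18 h at 37 °C; MIC taken as lowest concentration with no visible growth, triplicate.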"}, "[5]": {"system": "human embryonic fibroblasts (HEFs)", "assay": "MTT cytotoxicity on human embryonic fibroblasts", "type": "cell-based", "settings": "Homo sapiens, Fibroblast, 24 h, ND = non-toxic in tested concentrations (up to 50 mg/L)", "description": "as §1"}},
  "note": "Like-named read-outs stand apart in the source and are kept apart here.",
  "data": [
    {"smiles": "CCOC(=O)c1[nH]c2ccccc2c1/N=N/N1CCN(C)CC1", "note": "[BX-SI001, Ethyl (E)-3-((4-methylpiperazin-1-yl)diazenyl)-1H-indole-2-carboxylate]", "values": [
      {"measurement": "IC50", "setting": "[1]", "value": 22, "unit": "µg/mL"},
      {"measurement": "Selectivity Index", "setting": "[2]", "value": 19},
      {"measurement": "solubility at 5 min", "setting": "[3]; read-out: Solubility in water, mass concentration", "value": 90.5, "unit": "µg/mL"},
      {"measurement": "solubility at 5 min", "setting": "[3]; read-out: Solubility in water, molar concentration", "value": 280, "unit": "µM"},
      {"measurement": "MIC Range Against 8 MRSA Strains", "setting": "[4]; 8 multidrug-resistant MRSA clinical isolates, tested 0.125-1 mg/L", "value": 1, "unit": "µg/mL"},
      {"measurement": "MIC", "setting": "[4]; Table S4, MRSA strain 1", "value": 0.5, "unit": "µg/mL"},
      {"measurement": "MIC", "setting": "[4]; Table S4, MRSA strain 2", "value": 1, "unit": "µg/mL"},
      {"measurement": "MIC", "setting": "[4]; Table S4, MRSA strain 3", "value": 1, "unit": "µg/mL"},
      {"measurement": "MIC", "setting": "[4]; Table S4, MRSA strain 4", "value": 1, "unit": "µg/mL"},
      {"measurement": "MIC", "setting": "[4]; Table S4, MRSA strain 5", "value": 0.5, "unit": "µg/mL"},
      {"measurement": "MIC", "setting": "[4]; Table S4, MRSA strain 6", "value": 0.5, "unit": "µg/mL"},
      {"measurement": "MIC", "setting": "[4]; Table S4, MRSA strain 7", "value": 1, "unit": "µg/mL"},
      {"measurement": "MIC", "setting": "[4]; Table S4, MRSA strain 8", "value": 1, "unit": "µg/mL"},
      {"measurement": "MIC", "setting": "[4]; Table S4, MRSA strain 9", "value": 1, "unit": "µg/mL"},
      {"measurement": "MIC", "setting": "[4]; Table S4, MRSA strain 10", "value": 1, "unit": "µg/mL"},
      {"measurement": "MIC", "setting": "[4]; Table S4, MRSA strain 12", "value": 1, "unit": "µg/mL"},
      {"measurement": "MIC", "setting": "[4]; Table S4, MRSA strain 13", "value": 1, "unit": "µg/mL"},
      {"measurement": "MIC", "setting": "[4]; Table S4, MRSA strain 14", "value": 1, "unit": "µg/mL"},
      {"measurement": "MIC", "setting": "[4]; Table S4, MRSA strain 15", "value": 1, "unit": "µg/mL"},
      {"measurement": "MIC", "setting": "[4]; Table S4, MRSA strain 16", "value": 0.5, "unit": "µg/mL"},
      {"measurement": "MIC", "setting": "[4]; Table S4, MRSA strain 17", "value": 1, "unit": "µg/mL"},
      {"measurement": "MIC", "setting": "[4]; Table S4, MRSA strain 18", "value": 1, "unit": "µg/mL"},
      {"measurement": "MIC", "setting": "[4]; Table S4, MRSA strain 21", "value": 1, "unit": "µg/mL"},
      {"measurement": "MIC", "setting": "[4]; Table S4, MRSA strain 23", "value": 1, "unit": "µg/mL"},
      {"measurement": "MIC", "setting": "[4]; Table S4, MRSA strain 24", "value": 1, "unit": "µg/mL"},
      {"measurement": "MIC", "setting": "[4]; Table S4, MRSA strain 25", "value": 1, "unit": "µg/mL"},
      {"measurement": "MIC", "setting": "[4]; Table S4, MRSA strain 26", "value": 0.5, "unit": "µg/mL"},
      {"measurement": "MIC", "setting": "[4]; Table S4, MRSA strain 27", "value": 1, "unit": "µg/mL"},
      {"measurement": "MIC", "setting": "[4]; Table S4, MRSA strain 28", "value": 1, "unit": "µg/mL"},
      {"measurement": "MIC", "setting": "[4]; Table S4, MRSA strain 29", "value": 1, "unit": "µg/mL"},
      {"measurement": "MIC", "setting": "[4]; Table S4, MRSA strain 30", "value": 1, "unit": "µg/mL"},
      {"measurement": "MIC", "setting": "[4]; Table S4, MRSA strain 31", "value": 1, "unit": "µg/mL"},
      {"measurement": "MIC", "setting": "[4]; Table S4, MRSA strain 34", "value": 1, "unit": "µg/mL"},
      {"measurement": "MIC", "setting": "[4]; Table S4, MRSA strain 35", "value": 1, "unit": "µg/mL"},
      {"measurement": "MIC", "setting": "[4]; Table S4, MRSA strain 36", "value": 1, "unit": "µg/mL"},
      {"measurement": "MIC", "setting": "[4]; Table S4, MRSA strain 40", "value": 1, "unit": "µg/mL"},
      {"measurement": "MIC", "setting": "[4]; Table S4, MRSA strain 41", "value": 1, "unit": "µg/mL"},
      {"measurement": "MIC", "setting": "[4]; Table S4, MRSA strain 42", "value": 1, "unit": "µg/mL"},
      {"measurement": "MIC", "setting": "[4]; Table S4, MRSA strain 43", "value": 1, "unit": "µg/mL"},
      {"measurement": "MIC", "setting": "[4]; Table S4, MRSA strain 44", "value": 1, "unit": "µg/mL"},
      {"measurement": "MIC", "setting": "[4]; Table S4, MRSA strain 45", "value": 1, "unit": "µg/mL"},
      {"measurement": "MIC", "setting": "[4]; Table S4, MRSA strain 46", "value": 1, "unit": "µg/mL"},
      {"measurement": "MIC", "setting": "[4]; Table S4, MRSA strain 48", "value": 1, "unit": "µg/mL"},
      {"measurement": "MIC", "setting": "[4]; Table S4, MRSA strain 49", "value": 1, "unit": "µg/mL"},
      {"measurement": "MIC", "setting": "[4]; Table S4, MRSA strain 50", "value": 1, "unit": "µg/mL"},
      {"measurement": "MIC", "setting": "[4]; Table S4, MRSA strain 51", "value": 1, "unit": "µg/mL"},
      {"measurement": "IC50", "setting": "[5]", "value": 19, "unit": "µg/mL"}
    ]}
  ]
}
